From patent US20180325889A1, “IMMUNOREGULATORY AGENTS” (FLEXUS BIOSCIENCES, INC., priority 2014, published 2018)

Key:
human IDO1/HEK293 cells = biological target: T1, human IDO1/HEK293 cells (Homo sapiens, UniProt P14902); experiment: HEK Human IDO-1 cell-based IDO inhibition assay (kynurenine production); conditions: HEK293 cells stably expressing human IDO1, 20 hours incubation, absorbance at 490 nm; read-out: HEK Human IDO-1 Bio Activity (IDO IC50)
T1 construct: expressed in transfected cells
T1 sequence (P14902 whole entry): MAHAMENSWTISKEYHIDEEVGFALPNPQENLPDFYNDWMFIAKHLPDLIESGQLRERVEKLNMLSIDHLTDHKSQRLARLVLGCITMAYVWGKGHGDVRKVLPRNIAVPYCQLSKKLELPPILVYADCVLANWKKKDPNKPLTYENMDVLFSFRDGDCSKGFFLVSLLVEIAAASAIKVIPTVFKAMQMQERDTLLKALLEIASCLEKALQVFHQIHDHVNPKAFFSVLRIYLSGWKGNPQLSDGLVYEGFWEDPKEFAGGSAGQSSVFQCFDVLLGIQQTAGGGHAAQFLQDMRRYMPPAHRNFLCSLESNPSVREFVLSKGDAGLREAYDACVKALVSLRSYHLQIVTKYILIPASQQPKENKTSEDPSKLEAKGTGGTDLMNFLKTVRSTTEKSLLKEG
Method in brief: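 Stopped with 0.2% TCA, 50 °C 30 min; supernatant mixed with 0.2% Ehrlich reagent, 30 min RT, kynurenine read as absorbance at 490 nm.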

| SMILES | IC50 (human IDO1/HEK293 cells) [nM] | melting point [°C] |
| --- | --- | --- |
| O=C(NCC1(O)CCN(c2ccnc3ccc(F)cc23)CC1)c1ccc(Cl)cc1 [Example 81, 4-Chloro-N-((1-(6-fluoroquinolin-4-yl)-4-hydroxypiperidin-4-yl)methyl)benzamide] | < 2000 | 91 to 94 |
| C[C@@H](NC(=O)c1ccc(-n2cccc2)cc1)[C@H]1CC[C@@H](c2ccnc3ccc(F)cc32)CC1 [Example 195, N-((R)-1-(cis-4-(6-fluoroquinolin-4-yl)cyclohexyl)ethyl)-4-(1H-pyrrol-1-yl)benzamide] | < 50 |  |
| O=C(O)Cc1ccc(CN[C@H]2CC[C@H](c3ccnc4ccc(F)cc43)CC2)cc1 [Example 139, 2-(4-(((trans-4-(6-Fluoroquinolin-4-yl)cyclohexyl)amino)methyl)phenyl)acetic acid] | < 2000 |  |
| C[C@@H](NC(=O)c1ccc(-c2cncnc2)cc1)[C@H]1CC[C@@H](c2ccnc3ccc(F)cc32)CC1 [Example 234, N-((R)-1-((1s,4S)-4-(6-fluoroquinolin-4-yl)cyclohexyl)ethyl)-4-(pyrimidin-5-yl)benzamide] | < 50 |  |
| O=C(Nc1ccc(Cl)cc1F)N[C@H]1CC[C@H](c2ccnc3ccc(F)cc32)CC1 [Example 120, 1-(4-chloro-2-fluorophenyl)-3-(trans-4-(6-fluoroquinolin-4-yl)cyclohexyl)urea] | < 50 |  |
| CC1(CNC(=O)c2ccc(-c3ccccc3)cc2)CCN(c2ccnc(C(F)(F)F)c2)CC1 [Example 228, N-((4-Methyl-1-(2-(trifluoromethyl)pyridin-4-yl)piperidin-4-yl)methyl)-[1,1′-biphenyl]-4-carboxamide] | < 2000 |  |
| Fc1ccc2nccc([C@H]3CC[C@H](NCc4ccccc4)CC3)c2c1 [Example 130, trans-N-Benzyl-4-(6-fluoroquinolin-4-yl)cyclohexanamine] | < 250 |  |
| CCC(NC(=O)c1ccc(Cl)cc1)C1CCC(c2cccc(C(F)F)n2)CC1 (single isomer, unassigned) [Example 231c, 4-chloro-N-(1-(4-(6-(difluoromethyl)pyridin-2-yl)cyclohexyl)propyl)benzamide] | < 2000 |  |
| Cc1cnccc1C1CCC(C(C)NC(=O)c2ccc(Cl)cc2)CC1 (centres unmarked) [Example 160a, 4-chloro-N-(1-(4-(3-methylpyridin-4-yl)cyclohexyl)ethyl)benzamide] | < 50 |  |
| Fc1ccc2nccc([C@H]3CC[C@@H](NCc4ccccc4)CC3)c2c1 [Example 131, cis-N-Benzyl-4-(6-fluoroquinolin-4-yl)cyclohexanamine] | < 250 |  |
| CCC(NC(=O)c1ccc(Cl)cc1)C1CCC(c2ccnc3ccc(F)cc23)CC1 (single isomer, unassigned) [Example 164a, 4-Chloro-N-(1-(4-(6-fluoroquinolin-4-yl)cyclohexyl)propyl)benzamide] | < 250 |  |
| CC(NC(=O)c1ccc(Cl)cc1)C1CCC(c2ccc(C(F)(F)F)nc2)CC1 (single isomer, unassigned) [Example 218, 4-chloro-N-(1-(4-(6-(trifluoromethyl)pyridin-3-yl)cyclohexyl)ethyl)benzamide] | < 2000 |  |
| C[C@@H](NC(=O)c1ccc(-c2nnco2)cc1)[C@H]1CC[C@@H](c2ccnc3ccc(F)cc32)CC1 [Example 244, N-((R)-1-((1s,4S)-4-(6-fluoroquinolin-4-yl)cyclohexyl)ethyl)-4-(1,3,4-oxadiazol-2-yl)benzamide] | < 50 |  |
| C[C@@H](NC(=O)c1ccc(-c2cnccn2)cc1)[C@H]1CC[C@@H](c2ccnc3ccc(F)cc32)CC1 [Example 233, N-((R)-1-((1s,4S)-4-(6-fluoroquinolin-4-yl)cyclohexyl)ethyl)-4-(pyrazin-2-yl)benzamide] | < 50 |  |
| CCC(NC(=O)c1ccc(Cl)cc1)C1CCC(c2ccnc3ccc(F)cc23)CC1 (single isomer, unassigned) [Example 164d, 4-Chloro-N-(1-(4-(6-fluoroquinolin-4-yl)cyclohexyl)propyl)benzamide] | < 50 |  |
| Cc1c(C2CCC(C(C)NC(=O)c3ccc(-c4ccccc4)cc3)CC2)ccnc1F (single isomer, unassigned) [Example 222, N-(1-(4-(2-fluoro-3-methylpyridin-4-yl)cyclohexyl)ethyl)-[1,1′-biphenyl]-4-carboxamide] | < 2000 |  |

| SMILES | IC50 (human IDO1/HEK293 cells) [nM] | melting point [°C] |
| --- | --- | --- |
| O=C(Nc1ccc(Cl)cc1)N[C@H]1CC[C@H](c2ccnc3ccc(F)cc32)CC1 [Example 119, 1-(4-Chlorophenyl)-3-(trans-4-(6-fluoroquinolin-4-yl)cyclohexyl)urea] | < 50 |  |
| O=C(Nc1ccc(F)c(F)c1)N[C@H]1CC[C@H](c2ccnc3ccc(F)cc32)CC1 [Example 123, 1-(3,4-difluorophenyl)-3-(trans-4-(6-fluoroquinolin-4-yl)cyclohexyl)urea] | < 250 |  |
| CC1(CNC(=O)c2ccc(Cl)cc2)CCN(c2ccnc3ccc(F)cc23)CC1 [Example 226, 4-Chloro-N-((1-(6-fluoroquinolin-4-yl)-4-methylpiperidin-4-yl)methyl)benzamide] | < 2000 |  |
| Cc1c(C2CCC(C(C)NC(=O)c3ccc(Cl)cc3)CC2)ccnc1F (centres unmarked) [Example 158a, 4-chloro-N-(1-(4-(2-fluoro-3-methylpyridin-4-yl)cyclohexyl)ethyl)benzamide] | < 50 |  |
| C[C@@H](NC(=O)c1ccc(-c2cnc(C#N)nc2)cc1)[C@H]1CC[C@@H](c2ccnc3ccc(F)cc32)CC1 [Example 240, 4-(2-cyanopyrimidin-5-yl)-N-((R)-1-((1s,4S)-4-(6-fluoroquinolin-4-yl)cyclohexyl)ethyl)benzamide] | < 2000 |  |
| COc1ccc(S(=O)(=O)N[C@H](C)[C@H]2CC[C@@H](c3ccnc4ccc(F)cc43)CC2)cc1 [Example 46, N-((R)-1-((1s,4S)-4-(6-fluoroquinolin-4-yl)cyclohexyl)ethyl)-4-methoxybenzenesulfonamide] | < 2000 |  |
| Cc1ccc(C(=O)NCC2CCN(c3ccnc4ccc(F)cc34)CC2)cc1 [Example 86, N-((1-(6-Fluoroquinolin-4-yl)piperidin-4-yl)methyl)-4-methylbenzamide] | < 250 |  |
| C[C@@H](NC(=O)c1cc(Cl)cc(Cl)c1)[C@H]1CC[C@@H](c2ccnc3ccc(F)cc32)CC1 [Example 66, 3,5-dichloro-N-((R)-1-((1s,4S)-4-(6-fluoroquinolin-4-yl)cyclohexyl)ethyl)benzamide] | < 50 |  |
| COc1nccc(-c2ccc(C(=O)N[C@H](C)[C@H]3CC[C@@H](c4ccnc5ccc(F)cc54)CC3)cc2)n1 [Example 236, N-((R)-1-((1s,4S)-4-(6-fluoroquinolin-4-yl)cyclohexyl)ethyl)-4-(2-methoxypyrimidin-4-yl)benzamide] | < 50 |  |
| COc1cccc(S(=O)(=O)N[C@H](C)[C@H]2CC[C@@H](c3ccnc4ccc(F)cc43)CC2)c1 [Example 45, N-((R)-1-((1s,4S)-4-(6-fluoroquinolin-4-yl)cyclohexyl)ethyl)-3-methoxybenzenesulfonamide] | < 2000 |  |
| Cc1nccc(O[C@H]2CC[C@H](C(C)NC(=O)c3ccc(Cl)cc3)CC2)c1Cl (mixture of isomers) [Example 207, rac-4-chloro-N-(1-((trans)-4-((3-chloro-2-methylpyridin-4-yl)oxy)cyclohexyl)ethyl)benzamide] | < 50 |  |
| CCC(NC(=O)c1ccc(Cl)cc1)[C@H]1CC[C@@H](Oc2ccnc3ccc(C(F)(F)F)cc23)CC1 (mixture of isomers) [Example 78, (±)-4-Chloro-N-(1-((cis)-4-((6-(trifluoromethyl)quinolin-4-yl)oxy)cyclohexyl)propyl)benzamide] | < 2000 |  |
| CCC(NC(=O)c1ccc(Cl)cc1)[C@H]1CC[C@@H](Oc2ccnc3ccccc23)CC1 (stereo partly drawn) [Example 80, 4-Chloro-N-(1-(cis-4-(quinolin-4-yloxy)cyclohexyl)propyl)benzamide] | < 2000 |  |
| COc1ccc(C(=O)NC(C)C2CCC(Oc3ccnc(C)c3Cl)CC2)cc1 (racemic) [Example 209] | < 250 |  |
| CC[C@H](NC(=O)c1ccc(Cl)cc1)[C@H]1CC[C@H](c2cnc3ccccc3c2)CC1 (single isomer, unassigned) [Example 203d] | < 50 |  |
